According to patent publication US20110212186A1, “COMPOSITION FOR TREATING AUTOIMMUNE DISORDERS” (priority 2008, published 2011):

How the values were obtained:
[1] = system: Bovine articular cartilage explants; test: Collagen type II formation (PIINP ELISA) in bovine cartilage explants; format: cell-based; conditions: for effect on PIINP, day 22: Oligomin and T-ChOS 50-400 μg/ml, A and D 200 and 400 μg/ml
Description: (§1) For cartilage explant experiments, aminosugar concentrations tested were as follows. Oligomin and T-ChOS, 50, 100, 200 and 400 μg/ml in the media. N-acetyl glucosamine (A) and glucosamine (D), 200 and 400 μg/ml in the media. A+D combination were 200 μg/ml each in the media.
(§2) Bovine articular cartilage explants cultures are used as a model for cartilage degenerative diseases that enables experiments in a robust and simple test-model/assay, where the effect of growth factors and drugs on cartilage metabolism can be investigated [ Olsen, A.K., et al., Anabolic and catabolic function of chondrocyte ex vivo is reflected by the metabolic processing of type II collagen. Osteoarthritis and Cartilage, 2007, 15(3): p. 335-342.].
(§3) The knees were opened under semi-sterile conditions in a LAF bench. Cuts of surface articular cartilage were removed in a one-movement-maneuver, removing only the outermost layer. Too deep cuts will contain underlying subchondral bone /chondrosteous material. Uniform explants were harvested from both femur and tibia. Explants from the cartilage situated at the chondyles were avoided. The explants were transferred into a Petri-dish containing PBS+pen/strep (penincillin/streptomycin).
The explants were individually weighed and transferred into a sterile 96 well plate under semi-sterile conditions in a flow-bench. Prior, the wells were filled with 200 μL PBS+pen/strep, to keep the explants wet after weighing. Then PBS was removed, and medium containing different types and concentration of aminosugars were applied to the wells, 200 μL/well, according to the set-up. Four explant replicates were used for each test. The plates were incubated at 37° C. and 5% CO2 with shaking 50 rpm. The plates were covered in a CO2 permeable plastic bag to limit/avoid contamination from spores. […]
Supernatants were measured for type II collagen formation (PIINP), for aggrecanase-mediated aggrecan degradation. […]
Collagen type II formation is measured by a specific ELISA assay based on an antibody that recognizes an epitope on the PIINP molecule outside the exon 2 (PIIANP). […]

[2] = system: Bovine articular cartilage explants; test: Chondroitin sulphate (sGAG) release from bovine cartilage explants, anabolic conditions; format: cell-based; conditions: for effect on accumulated chondroitin sulphate release day 10-23: Oligomin 200 and 400 μg/ml, glucosamine 400 μg/ml, T-ChOS 50-400 μg/ml, A 200 and 400 μg/ml; for accumulative chondroitin sulphate release day 17-24: combination experiment, IGF-1 100 ng/ml
Description: as §1, §2, §3
The explants were individually weighed and transferred into a sterile 96 well plate under semi-sterile conditions in a flow-bench. Prior, the wells were filled with 200 μL PBS+pen/strep, to keep the explants wet after weighing. Then PBS was removed, and medium containing different types and concentration of aminosugars were applied to the wells, 200 μL/well, according to the set-up. Four explant replicates were used for each test. The plates were incubated at 37° C. and 5% CO2 with shaking 50 rpm. The plates were covered in a CO2 permeable plastic bag to limit/avoid contamination from spores. The conditioning medium was replaced every 2nd - 3rd day, and the supernatant was transferred into a new 96 wells plate and stored at −20° C. until end of experiment. Fresh medium different types and concentration of aminosugars were applied to the wells, 200 μL/well, according to the setup every 2nd- 3rd day.
For detection of sulfated glycosaminoglycans (sGAG) that is chondroitin sulphate release, the quantitative dye-binding assay for in vitro analysis of GAG release was used according to the manufacturer's instructions (Wieslab, S).

[3] = system: type II collagen arthritis in rats; test: Type II collagen induced rheumatoid arthritis rat model, oral dosing; format: in vivo
Description: Animals used were 10 per group for arthritis-Induced groups, 4/group for non-induced control group), housed 4-5/cage. For the arthritis induction, the animals were anesthetized with Isoflurane and given subcutaneous/intradermal (SC/ID) injections of 300 μl of Freund's Incomplete Adjuvant (Difco, Detroit, Mich.), containing 2 mg/ml bovine type II collagen (Elastin Products, Owensville, Mo.), at the base of the tail and 2 sites on the back on days 0 and 6. Dosing of the various oligomer and/or monomer compositions by oral route (QD at 24 hr intervals) was initiated on day 0 of the study and continued through day 16. Animals were terminated on study day 17. Efficacy evaluation was based on ankle caliper measurements, expressed as area under the curve (AUC), terminal hind paw weights, and histopathologic evaluation of ankles and knees. For statistical analysis various inflammation calculations were performed for the ankle diameter data, Anova and t-tests (parametrical or non-parametrical tests) were applied according to software guidelines ([…]). All animals survived to study termination.

YKL-40 = test: Extracellular YKL-40 release in human cartilage explant media; format: cell-based; conditions: 400 μg/ml
Description: Cartilage explants were obtained from a knee of a person suffering from osteoarthritis. Explants were kept in growth media under anabolic conditions for 25 days. Fresh media was applied every 2-3 days. Aminosugars (Oligomin, T-ChOS, A and D; different concentration) were kept in media from day 0 to day 25. Since YKL-40 is a proposed receptor for the T-ChOS, the extracellular YKL-40 release was analyzed in media at day 4, 11, 15, 20 and 25 in explants treated with 400 μg/ml of T-ChOS, Oligomin and glucosamine (D). […] For the control there was a significant drop in the YKL-40 expression between day 10 and 20. […] Glucosamine had no effect (FIG. 7). […] This relationship disappeared when the T-ChOS group was excluded from the data (no linear regression).

[4] = system: human OA cartilage explant; test: Collagen type II formation (PIINP) in human OA cartilage explants; format: cell-based; conditions: different concentrations
Description: Collagen type II formation is measured by a specific ELISA assay based on an antibody that recognizes an epitope on the PIINP molecule outside the exon 2 (PIIANP). Therefore the EUSA is not specific for the HA or the IIB form but reacts with both forms. Cartilage explants were obtained from a knee of a person suffering from osteoarthritis. Explants were kept in growth media under anabolic conditions for 25 days. Fresh media was applied every 2-3 days. Aminosugars (Oligomin, T-ChOS, A and D; different concentration) were kept in media from day 0 to day 25.

[5] = system: human OA articular cartilage explants; test: Cell viability by Alamar Blue, human OA articular cartilage explants; format: cell-based; conditions: linear regression p<0.05
Description: To ensure the specific and non-toxic action of aminosugars, the metabolic activity of chondrocytes were measured by Alamar Blue, which previously has shown to correlate to cell number and cell viability. Cartilage explants were obtained from a knee of a person suffering from osteoarthritis. Explants were kept in growth media under anabolic conditions for 25 days. Fresh media was applied every 2-3 days. Aminosugars (Oligomin, T-ChOS, A and D; different concentration) were kept in media from day 0 to day 25.

[6] = system: Bovine articular cartilage explants; test: Extracted cartilage protein content, bovine explants; format: cell-based; conditions: combination experiment
Description: The cartilage was extracted to determine the cartilage content of various proteins, in comparison of that secreted to the medium.
Cartilage explants were frozen in liquid nitrogen. The frozen explants were pulverized using Bessman Tissue Pulverizer according to the instructions supplied by the manufacturer. The powder was placed in 14 ml tube using frozen scalpel. Ice-cold Digestive Buffer (50 mM Tris.HCL buffer, pH 7.4 containing 0.1M NaCL and 0.1% Triton X-100) was added and the solution homogenized for 30 sec using Polytron PT-MR 3000 homogenizer (Brinkmann, Littau-Switzerland).The homogenate was then centrifuged at 15,000 rpm for 20 min and the supernatant collected and stored at −80° C. until further analysis.

Row | Compound | effect on PIINP, day 22 [1] | effect on accumulated chondroitin sulphate release day 10-23 [2] | Summed knee scores, non-significant increase vs disease controls ([3]; 21 mg/kg D alone) | Inhibition of summed ankle histopathology parameters ([3]; T-ChOS 7.1 mg/kg (Group 3), D 21.4 mg/kg (Group 4), T-ChOS 7.1 + D 21.4 mg/kg (Group 5)) | overall benefit in the rat arthritis study (summary) ([3]; T-ChOS 7.1 mg/kg alone, D-glucosamine 21.4 mg/kg alone) | accumulative ankle diameter (day 9-17) ([3]; T-ChOS 7.1 mg/kg, D 21.4 mg/kg, combination T-ChOS 7.1 + D 21.4 mg/kg) | YKL-40 expression in media, late period (day 15-25) (YKL-40) | effect on PIINP expression day 18-25 [4] | accumulated PIINP release (day 20 and day 24) ([1]; combination experiment, T-ChOS 50 and 400 μg/ml, T-ChOS 400 μg/ml + glucosamine 200 μg/ml, glucosamine 200 μg/ml, Oligomin 50-400 μg/ml) | Cell-viability at day 25 (Alamar Blue), induction [5] | effect on accumulated chondroitin sulphate release day 10-23 ([2]; listed as Glucosamine) | accumulative chondroitin sulphate release day 17-24 [2] | extracted cartilage protein assay at day 24 [6]
1 | CC(=O)N[C@H]1C(O)O[C@H](CO)[C@@H](O)[C@@H]1O (stereo partly shown) [N-acetyl glucosamine] | no effect | no significant effect | – | – | – | – | – | – | – | – | – | – | –
2 | N[C@H]1C(O)O[C@H](CO)[C@@H](O)[C@@H]1O (stereo partly shown) [glucosamine] | no effect | significant reduction | 14% | 12% | no beneficial effect | no effect | no effect | no effect | no effect | least | same effect | neither T-ChOS nor glucosamine alone did have any significant effect | –
3 | IGF-1: Insulin-like Growth Factor-1, 100 ng/ml, positive anabolic stimulation control | – | – | – | – | – | – | – | – | – | – | – | significant Increase | did not reveal any significant effect
